≈ marks a conversion by molar mass, not a printed value. Where two headings read alike, the source gives them in different places. Positions of bridges follow the written chain, without caps; N, C: chain ends. Non-standard residues stand in square brackets, D forms with d. Residues, ends and D or L forms follow the SMILES beside them. Dab = NCC[C@H](N)C(=O)O
Assays:
[1] = tested on: F. graminearum
[2] = tested on: B. cinerea
[3] = tested on: B. cinerea; experiment: Semi-in planta drop inoculation assay on detached leaves of N. benthamiana, gray mold (Example 4); assay type: in vivo
[4] = tested on: Botrytis cinerea T-4; conditions: for MIC (μM) SFM: Table 18, SFM; for MIC (μM) (SFM + 2 mM CaCl2): Table 18, SFM + 2 mM CaCl2; for MIC (μM) (SFM + 100 mM KCl): Table 18, SFM + 100 mM KCl; for MIC (μM) (SFM + 100 mM NaCl): Table 18, SFM + 100 mM NaCl
[5] = tested on: Fusarium graminearum PH-1; assay type: cell-based; conditions: MIC Day 1; 96-well plate, resazurin cell viability
[6] = tested on: Zymoseptoria tritici IPO323; assay type: cell-based
[7] = tested on: Botrytis cinerea T4; assay type: cell-based

## C[C@@H](O)[C@H](NC(=O)[C@H](CS)NC(=O)[C@H](Cc1ccccc1)NC(=O)[C@H](CS)NC(=O)[C@H](CCCNC(=N)N)NC(=O)[C@H](CCCNC(=N)N)NC(=O)[C@H](CCCNC(=N)N)NC(=O)[C@H](Cc1ccccc1)NC(=O)CNC(=O)[C@H](CCCNC(=N)N)NC(=O)[C@H](CS)NC(=O)[C@H](CCCNC(=N)N)NC(=O)CN)C(=O)N[C@H](C(=O)N[C@@H](Cc1c[nH]cn1)C(=O)N[C@@H](CS)C(N)=O)[C@@H](C)O [GMA4AC] (H-GRCRGFRRRCFCTTHC-NH2; N-terminus and C-terminus assumed)
[1]
  MIC (μM) Fusarium graminearum: 6 µM (≈ 11.8 µg/mL)

## CC[C@H](C)[C@H](NC(=O)[C@H](CCCNC(=N)N)NC(=O)[C@@H](NC(=O)[C@H](Cc1c[nH]c2ccccc12)NC(=O)[C@H](Cc1ccccc1)NC(=O)[C@H](Cc1c[nH]c2ccccc12)NC(=O)[C@H](CCCNC(=N)N)NC(=O)[C@H](CCCNC(=N)N)NC(=O)[C@H](CCCNC(=N)N)NC(=O)[C@H](Cc1ccccc1)NC(=O)CNC(=O)[C@H](CCCCN)NC(=O)[C@H](CS)NC(=O)[C@H](CCCNC(=N)N)NC(=O)CNC(=O)CN)[C@@H](C)O)C(=O)N[C@@H](CS)C(N)=O [GMA4C_V6A] (H-GGRCKGFRRRWFWTRIC-NH2; N-terminus assumed)
[2]
  B. cinerea MIC: 0.75 µM
  MIC (μM) Botrytis cinerea: 0.75 µM (≈ 1.64 µg/mL)
  MIC Values (μM) against B. cinerea: 0.75 µM (≈ 1.64 µg/mL)
  SFM + 2 mM CaCl2 MIC: 3 to 6 µM
  SFM + 100 mM KCl MIC: 1.5 to 3 µM
  SFM + 100 mM NaCl MIC: 0.75 to 1.5 µM
  SFM MIC: 1.5 µM
[2]; in vitro, low cationic conditions, B. cinerea
  Antifungal activity relative to the wild-type GMA4C_AC control: four-fold increase

## CC(C)C[C@H](NC(=O)[C@H](CS)NC(=O)[C@H](C)NC(=O)CN)C(=O)N[C@@H](CCCCN)C(=O)N[C@@H](CC(N)=O)C(=O)N[C@@H](CCCNC(=N)N)C(=O)N[C@@H](Cc1c[nH]cn1)C(=O)N[C@@H](CO)C(=O)N[C@@H](CCCCN)C(=O)N[C@@H](Cc1c[nH]cn1)C(=O)N[C@@H](Cc1ccc(O)cc1)C(=O)NCC(=O)N[C@@H](CS)C(=O)N[C@@H](Cc1ccc(O)cc1)C(=O)N[C@@H](CS)C(=O)N[C@@H](Cc1ccc(O)cc1)C(=O)N[C@@H](Cc1ccc(O)cc1)C(=O)N[C@@H](CCCNC(=N)N)C(=O)N[C@@H](Cc1c[nH]cn1)C(=O)N[C@@H](CS)C(=O)N[C@@H](Cc1ccc(O)cc1)C(N)=O [GMAOe1C_WT] (H-GACLKNRHSKHYGCYCYYRHCY-NH2; N-terminus assumed)
[3]; detached N. benthamiana leaves, peptide 1.5, 3 and 6 μM, 48 h after inoculation
  Reduction of gray mold disease symptoms (lesion sizes): only effective at 6 μM

## CC[C@H](C)[C@H](NC(=O)[C@H](CCCNC(=N)N)NC(=O)[C@H](CS)NC(=O)[C@H](CCCNC(=N)N)NC(=O)CNC(=O)[C@@H](N)CO)C(=O)N[C@@H](CC(C)C)C(=O)N[C@@H](Cc1ccccc1)C(=O)N[C@@H](CCCNC(=N)N)C(=O)N[C@@H](CS)C(=O)N[C@@H](Cc1ccccc1)C(=O)N[C@@H](CS)C(=O)N[C@H](C(=O)N[C@@H](CCCCN)C(=O)N[C@@H](CC(N)=O)C(=O)N[C@@H](CS)C(N)=O)[C@@H](C)O [GMA1C_V1] (H-SGRCRILFRCFCTKNC-NH2; N-terminus assumed)
[3]; drop inoculation assay, peptide 3 μM and 6 μM
  Reduction of gray mold symptoms at 3 and 6 μM: failed to reduce disease symptoms

## CC[C@H](C)[C@@H]1NC(=O)[C@H](CCCNC(=N)N)NC(=O)[C@@H](NC(=O)[C@H](CCCNC(=N)N)NC(=O)CNC(=O)[C@@H](N)CO)CSSC[C@@H](C(N)=O)NC(=O)[C@H](CC(N)=O)NC(=O)[C@H](CCCCN)NC(=O)[C@H]([C@@H](C)O)NC(=O)[C@H](Cc2ccccc2)NC(=O)[C@H](Cc2ccc(O)cc2)NC(=O)[C@H](Cc2c[nH]c3ccccc23)NC(=O)[C@H](CCCNC(=N)N)NC(=O)[C@H](Cc2ccccc2)NC(=O)[C@H](CC(C)C)NC1=O [GMA1C_V3] (H-SGRCRILFRWYFTKNC-NH2; disulfide 4-16; N-terminus assumed)
[4]
  MIC (μM) SFM: 1.5 µM (≈ 3.07 µg/mL)
  MIC (μM) (SFM + 2 mM CaCl2): 6 µM
  MIC (μM) (SFM + 100 mM KCl): >12 µM
  MIC (μM) (SFM + 100 mM NaCl): 3 µM

## NCC[C@H](NC(=O)CNC(=O)[C@@H](N)Cc1ccccc1)C(=O)N[C@@H](CS)C(=O)N[C@@H](CCN)C(=O)NCC(=O)N[C@@H](Cc1ccccc1)C(=O)N[C@@H](CCN)C(=O)N[C@@H](CCN)C(=O)N[C@@H](CCN)C(=O)N[C@@H](CS)C(=O)N[C@@H](Cc1ccccc1)C(=O)N[C@@H](CS)C(=O)N[C@@H](Cc1c[nH]c2ccccc12)C(=O)N[C@@H](CCN)C(=O)N[C@@H](Cc1c[nH]c2ccccc12)C(=O)N[C@@H](CS)C(=O)O [GMA4C_V5, FG(Dab)C(Dab)GF(Dab)(Dab)(Dab)CFCW(Dab)WC] (H-FG[Dab]C[Dab]GF[Dab][Dab][Dab]CFCW[Dab]WC-OH; N-terminus assumed)
[2]; Table 4, B. cinerea, SFM + 2 mM CaCl2
  SFM + 2 mM CaCl2 MIC: >6 (very μM
[2]; Table 10, SFM + 2 mM CaCl2, values repeat Table 4 (B. cinerea)
  SFM + 2 mM CaCl2 MIC: >6 (very μM

## CC(C)C[C@@H]1NC(=O)[C@@H](NC(=O)[C@H](C)NC(=O)CN)CSSC[C@@H](C(=O)N[C@@H](Cc2ccc(O)cc2)C(N)=O)NC(=O)[C@H](Cc2c[nH]cn2)NC(=O)[C@H](CCCNC(=N)N)NC(=O)[C@H](Cc2ccc(O)cc2)NC(=O)[C@H](Cc2ccc(O)cc2)NC(=O)[C@H](Cc2c[nH]c3ccccc23)NC(=O)[C@H](Cc2ccccc2)NC(=O)[C@H](Cc2ccccc2)NC(=O)CNC(=O)[C@H](Cc2ccc(O)cc2)NC(=O)[C@H](Cc2c[nH]cn2)NC(=O)[C@H](CCCCN)NC(=O)[C@H](CO)NC(=O)[C@H](Cc2c[nH]cn2)NC(=O)[C@H](CCCNC(=N)N)NC(=O)[C@H](CC(N)=O)NC(=O)[C@H](CCCCN)NC1=O [GMAOe1C_V4] (H-GACLKNRHSKHYGFFWYYRHCY-NH2; disulfide 3-21; N-terminus assumed)
[4]
  MIC (μM) SFM: 1.5 µM (≈ 4.25 µg/mL)
  MIC (μM) (SFM + 2 mM CaCl2): 6 to 12 µM
  MIC (μM) (SFM + 100 mM KCl): 6 to 12 µM
  MIC (μM) (SFM + 100 mM NaCl): 6 µM

## CC(C)C[C@@H]1NC(=O)[C@@H](NC(=O)[C@H](C)NC(=O)CN)CSSC[C@@H](C(=O)N[C@@H](Cc2ccc(O)cc2)C(N)=O)NC(=O)[C@H](Cc2c[nH]cn2)NC(=O)[C@H](CCCNC(=N)N)NC(=O)[C@H](Cc2ccc(O)cc2)NC(=O)[C@H](Cc2ccc(O)cc2)NC(=O)[C@H](Cc2c[nH]c3ccccc23)NC(=O)[C@H](Cc2ccccc2)NC(=O)[C@H](Cc2c[nH]c3ccccc23)NC(=O)CNC(=O)[C@H](Cc2ccc(O)cc2)NC(=O)[C@H](Cc2c[nH]cn2)NC(=O)[C@H](CCCCN)NC(=O)[C@H](CO)NC(=O)[C@H](Cc2c[nH]cn2)NC(=O)[C@H](CCCNC(=N)N)NC(=O)[C@H](CC(N)=O)NC(=O)[C@H](CCCCN)NC1=O [GMAOe1C_V3] (H-GACLKNRHSKHYGWFWYYRHCY-NH2; disulfide 3-21; N-terminus assumed)
[4]
  MIC (μM) SFM: 1.5 µM (≈ 4.31 µg/mL)
  MIC (μM) (SFM + 2 mM CaCl2): 3 to 6 µM
  MIC (μM) (SFM + 100 mM KCl): 6 to 12 µM
  MIC (μM) (SFM + 100 mM NaCl): 2 to 3 µM
[3]; drop inoculation assay, peptide 1.5 μM
  Reduction of gray mold symptoms at 1.5 μM: more effective than GMAOe1C_V4 or GMAOe1C_WT

B1: PD127.1.1: wild-type defensin-like protein SEQ ID NO: 732 with N-terminal alanine, expressed in Pichia pastoris (protein, listed as Potentilla micrantha)
chain: GACPLVQKRSKTWSGFCGSSNNCDKQCRTWEKAKHGACHATGDLKGTPRLKLRSCHARRSKDH
modifications: N-terminal alanine added
[5]
  F. graminearum PH-1 MIC Day1: >12 µM
[6]
  Z. tritici IPO323 MIC Day 1: >12 µM
  Z. tritici IPO323 MIC Day 7: >12 µM
  Z. tritici IPO323 MIC Day 14: >12 µM
[7]
  B. cinerea T4 MIC Day1: >12 µM

B2: PD91.1.1: Setaria viridis wild-type defensin SEQ ID NO: 578 with N-terminal alanine, expressed in Pichia pastoris (protein, listed as Setaria viridis)
chain: AYMCTTQNRFFHGRCVNNLNCASSCVHGRLGTGGHCATRKRSAADPGVDIDWVWNRRICVCVFQC
modifications: N-terminal alanine
[5]
  F. graminearum PH-1 MIC Day1: >12 µM
[6]
  Z. tritici IPO323 MIC Day 1: 6 µM
  Z. tritici IPO323 MIC Day 7: >6 µM
  Z. tritici IPO323 MIC Day 14: >6 µM
[7]
  B. cinerea T4 MIC Day1: >12 µM

B3: PD97.1.1: Rubus chingii wild-type defensin SEQ ID NO: 608 with N-terminal alanine, expressed in Pichia pastoris (protein, listed as Rubus chingii)
chain: GACPLVSKRSKTWSGFCGSSNNCNKQCRSWESAQHGACHNTYKTVLGVKVISGRACFCYFCKKHT
modifications: N-terminal alanine
[5]
  F. graminearum PH-1 MIC Day1: 1.5 µM
[6]
  MIC against Z. tritici on day 1: 0.75 µM
  MIC against Z. tritici on day 7: 1.5 µM
  MIC against Z. tritici on day 14: 1.5 µM
  Z. tritici IPO323 MIC Day 1: 0.75 µM
  Z. tritici IPO323 MIC Day 7: 1.5 µM
  Z. tritici IPO323 MIC Day 14: 1.5 µM
[7]
  B. cinerea T4 MIC Day1: 1.25 µM

Reference: patent US20240239854A1, “ANTIMICROBIAL PEPTIDES AND MODIFICATIONS THEREOF” (Donald Danforth Plant Science Center, priority 2022, published 2024)
